Test results taken from patent publication US12258338B2, “Modulators of the integrated stress response pathway” (EVOTEC INTERNATIONAL GMBH, priority 2019, dated 2025).

Key:
ATF4 = assay: HEK-ATF4 High Content Imaging assay (prevention of Tunicamycin induced ISR; ATF4 signal ratio between nucleus and cytoplasm); type: cell-based; conditions: Homo sapiens; Wild-type HEK293 cells, Tunicamycin induced ISR, 6 h; read-out: IIEK-ATF4 Activity
Method: HEK-ATF4 High Content Imaging Assay
Example compounds were tested in the HEK-ATF4 High Content Imaging assay to assess their pharmacological potency to prevent Tunicamycin induced ISR. Wild-type HEK293 cells were plated in 384-well imaging assay plates at a density of 12,000 cells per well in growth medium (containing DMEM/F12, 10% FBS, 2 mM L-Glutamine, 100 U/mL Penicillin-100 μg/mL Streptomycin) and incubated at 37° C., 5% CO2. 24 h later, the medium was changed to 50 μL assay medium per well (DMEM/F12, 0.3% FBS, 2 mM L-Glutamine, 100 U/mL Penicillin-100 μg/mL Streptomycin). Example compounds were serially diluted in DMSO, spotted into intermediate plates and prediluted with assay medium containing 3.3 μM Tunicamycin to give an 11-fold excess of final assay concentration. In addition to the example compound testing area, the plates also contained multiples of control wells for assay normalization purposes, wells containing Tunicamycin but no example compounds (High control), as well as wells containing neither example compound nor Tunicamycin (Low control). The assay was started by transferring 5 μL from the intermediate plate into the assay plates, followed by incubation for 6 h at 37° C., 5% CO2. Subsequently, cells were fixed (4% PFA in PBS, 20 min at r.t.) and submitted to indirect ATF4 immunofluorescence staining (primary antibody rabbit anti ATF4, clone D4B8, Cell Signaling Technologies; secondary antibody Alexa Fluor 488 goat anti-rabbit IgG (H+L), Thermofisher Scientific). Nuclei were stained using Hoechst dye (Thermofisher Scientific), and plates were imaged on an Opera Phenix High Content imaging platform equipped with 405 nm and 488 nm excitation. Finally, images were analyzed using script based algorithms. The main readout HEK-ATF4 monitored the ATF4 signal ratio between nucleus and cytoplasm. Tunicamycin induced an increase in the overall ATF4 ratio signal, which was prevented by ISR modulating example compounds. In addition, HEK-CellCount readout was derived from counting the number of stained nuclei corresponding to healthy cells. This readout served as an internal toxicity control.

[1] = molecular target: T1, human ERG potassium channel (hERG) (Homo sapiens, UniProt Q12809); assay: hERG channel tail current recording using in vitro Rapid ICE (automated patch-clamp, QPatch HTX); type: cell-based; conditions: Table 26
T1 construct: expressed in transfected cells; host or cells: HEK293, stably transfected, tetracycline-inducible promoter
T1 sequence (Q12809 whole entry): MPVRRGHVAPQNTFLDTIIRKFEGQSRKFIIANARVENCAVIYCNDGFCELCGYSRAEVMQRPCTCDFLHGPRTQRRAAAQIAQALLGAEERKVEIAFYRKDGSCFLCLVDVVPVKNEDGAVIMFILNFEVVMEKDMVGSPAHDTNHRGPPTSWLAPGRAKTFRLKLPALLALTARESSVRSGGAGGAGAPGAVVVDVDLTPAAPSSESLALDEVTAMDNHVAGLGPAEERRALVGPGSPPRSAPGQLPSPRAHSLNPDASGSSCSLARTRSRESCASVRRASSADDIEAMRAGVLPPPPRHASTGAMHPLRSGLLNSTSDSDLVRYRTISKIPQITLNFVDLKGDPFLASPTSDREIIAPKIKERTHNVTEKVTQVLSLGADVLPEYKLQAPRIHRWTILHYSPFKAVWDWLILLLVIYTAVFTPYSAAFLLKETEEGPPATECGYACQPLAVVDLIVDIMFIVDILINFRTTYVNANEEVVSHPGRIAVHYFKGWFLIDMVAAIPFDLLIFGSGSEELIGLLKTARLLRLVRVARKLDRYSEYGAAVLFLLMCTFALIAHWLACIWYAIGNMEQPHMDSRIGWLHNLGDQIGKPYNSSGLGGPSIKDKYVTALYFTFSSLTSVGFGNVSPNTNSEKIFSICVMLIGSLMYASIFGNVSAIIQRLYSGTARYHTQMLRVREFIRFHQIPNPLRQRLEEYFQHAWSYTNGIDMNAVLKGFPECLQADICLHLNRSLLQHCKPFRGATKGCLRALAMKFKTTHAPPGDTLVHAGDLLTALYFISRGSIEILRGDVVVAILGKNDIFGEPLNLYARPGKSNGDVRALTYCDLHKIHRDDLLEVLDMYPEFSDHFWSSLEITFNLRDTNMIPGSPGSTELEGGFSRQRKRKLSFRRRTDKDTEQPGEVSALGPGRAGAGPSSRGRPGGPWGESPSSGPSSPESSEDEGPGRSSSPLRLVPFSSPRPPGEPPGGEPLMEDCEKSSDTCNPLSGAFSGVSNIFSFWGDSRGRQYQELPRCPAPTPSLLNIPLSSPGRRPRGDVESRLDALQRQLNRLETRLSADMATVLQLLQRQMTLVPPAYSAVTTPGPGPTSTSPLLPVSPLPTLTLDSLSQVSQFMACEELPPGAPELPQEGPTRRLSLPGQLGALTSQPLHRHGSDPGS
Method: Protocol—Measure of the Effect on hERG Channel by Tail Current Recording Using In Vitro Rapid ICE
The potency of the example compounds in inhibiting human ERG potassium channel (hERG) tail current was assessed in a recombinant HEK293 cell line stably transfected with hERG cDNA under an inducible promoter, using Rapid ICE (rapid ion channel electrophysiology) assay. Rapid ICE is an automated patch-clamp assay utilizing the QPatch HTX system (Sophion Bioscience A/S). Briefly, inducible HEK hERG cells were cultivated in minimum essential medium supplemented with 10% FBS, 1% non-essential amino acids, 1% sodium pyruvate, 2 mM 1-glutamine, 15 μg/mL blasticidin, and 100 μg/mL hygromycin. hERG channel expression induction was obtained by adding 10 μg/mL tetracycline for 24, 48, or 72 h before recordings.
On the day of the experiment, cells were detached with TrypLE and prepared to be loaded on the instrument. Cells were resuspended in 7 mL of Serum-Free Media containing 25 mM Hepes and soybean trypsin inhibitor and immediately placed in the cell storage tank of the machine. The composition of the extracellular buffer was (mM): NaCl 137, KCl 4, CaCl2 1.8, MgCl2 1.0, d-glucose 10, N-2-hydroxyethylpiperazine-N′-2-ethanesulfonic acid (HEPES) 10, pH 7.4 with 1 M NaOH. The composition of the intracellular solution was (mM): KCl 130, MgCl2 1.0, ethylene glycol-bis(β-aminoethyl ether)-N,N,N′,N′-tetraacetic acid (EGTA) 5, MgATP 5, HEPES 10, pH 7.2 with 1 M KOH. The voltage protocol included the following steps: step from −80 to −50 mV for 200 ms, +20 mV for 4.8 s, step to −50 mV for 5 s, then step to the holding potential of −80 mV. Compounds were dissolved in DMSO and diluted in extracellular buffer to achieve final test concentrations (0.3, 3, and 30 μM) in 0.3% DMSO. The voltage protocol was run and recorded continuously during the experiment. The vehicle, corresponding to 0.3% DMSO in extracellular buffer was then applied for 3 min, followed by the test substance in triplicate. The standard combined exposure time was 5 min. The average of tail current amplitude values recorded from four sequential voltage pulses was used to calculate for each cell the effect of the test substance by calculating the residual current (% control) compared with vehicle pretreatment. Data were reported as % inhibition for each concentration tested, and IC50 values were estimated using QPatch software. At least two cells were tested, and even more if results diverged.

## O=C(COc1ccc(Cl)c(F)c1)N[C@@H]1CC[C@@H](c2nnc(-c3ccc(Cl)cc3)o2)NC1 [Example 35, 2-(4-chloro-3-fluorophenoxy)-N-[(3R,6S)-6-[5-(4-chlorophenyl)-1,3,4-oxadiazol-2-yl]piperidin-3-yl]acetamide]
ATF4
  IC50: 0.001 to 0.5 µM
[1]
  IC50: 0.001 to 1 µM

## O=C(COc1ccc(Cl)c(F)c1)N[C@H]1CC[C@H](c2nnc(-c3ccc(Cl)cc3)o2)NC1 [Example 40, 2-(4-chloro-3-fluorophenoxy)-N-[(3S,6R)-6-[5-(4-chlorophenyl)-1,3,4-oxadiazol-2-yl]piperidin-3-yl]acetamide]
ATF4
  IC50: 0.001 to 0.5 µM
[1]
  IC50: 0.001 to 1 µM

## O=C(COc1ccc(Cl)c(F)c1)N[C@@H]1CC[C@@H](c2nnc(OCCC(F)(F)F)o2)NC1 [Example 42, 2-(4-chloro-3-fluorophenoxy)-N-[(3R,6S)-6-[5-(3,3,3-trifluoropropoxy)-1,3,4-oxadiazol-2-yl]piperidin-3-yl]acetamide]
ATF4
  IC50: 0.001 to 0.5 µM
[1]
  IC50: 1 to 5 µM

## O=C(COc1ccc(Cl)c(F)c1)N[C@@H]1CC[C@@H](c2nnc(N3CC(OC(F)(F)F)C3)o2)NC1 [Example 43]
ATF4
  IC50: 0.001 to 0.5 µM
[1]
  IC50: > 5 µM

## CN1C[C@H](NC(=O)COc2ccc(Cl)c(F)c2)CC[C@H]1c1nnc(-c2ccc(Cl)cc2)o1 [Example 44, 2-(4-chloro-3-fluorophenoxy)-N-[(3R,6S)-6-[5-(4-chlorophenyl)-1,3,4-oxadiazol-2-yl]-1-methylpiperidin-3-yl]acetamide]
ATF4
  IC50: 0.001 to 0.5 µM
[1]
  IC50: 0.001 to 1 µM

## CN1C[C@@H](NC(=O)COc2ccc(Cl)c(F)c2)CC[C@@H]1c1nnc(-c2ccc(Cl)cc2)o1 [Example 45, 2-(4-chloro-3-fluorophenoxy)-N-[(3S,6R)-6-[5-(4-chlorophenyl)-1,3,4-oxadiazol-2-yl]-1-methylpiperidin-3-yl]acetamide]
ATF4
  IC50: 0.001 to 0.5 µM
[1]
  IC50: 0.001 to 1 µM

## CCN1C[C@@H](NC(=O)COc2ccc(Cl)c(F)c2)CC[C@@H]1c1nnc(-c2ccc(Cl)cc2)o1 [Example 46, 2-(4-chloro-3-fluorophenoxy)-N-[(3S,6R)-6-[5-(4-chlorophenyl)-1,3,4-oxadiazol-2-yl]-1-ethylpiperidin-3-yl]acetamide]
ATF4
  IC50: 0.001 to 0.5 µM
[1]
  IC50: 0.001 to 1 µM

## CCN1C[C@H](NC(=O)COc2ccc(Cl)c(F)c2)CC[C@H]1c1nnc(-c2ccc(Cl)cc2)o1 [Example 47, 2-(4-chloro-3-fluorophenoxy)-N-[(3R,6S)-6-[5-(4-chlorophenyl)-1,3,4-oxadiazol-2-yl]-1-ethylpiperidin-3-yl]acetamide]
ATF4
  IC50: 0.001 to 0.5 µM
[1]
  IC50: 0.001 to 1 µM

## O=C(COc1ccc(Cl)c(F)c1)N[C@H]1CC[C@H](c2nnc(-c3ccc(Cl)cn3)o2)NC1 [Example 53, 2-(4-chloro-3-fluorophenoxy)-N-[(3S,6R)-6-[5-(5-chloropyridin-2-yl)-1,3,4-oxadiazol-2-yl]piperidin-3-yl]acetamide]
ATF4
  IC50: 0.001 to 0.5 µM
[1]
  IC50: 1 to 5 µM

## O=C(COc1ccc(Cl)c(F)c1)N[C@H]1CC[C@H](c2nnc(-c3ccc(Cl)c(F)c3)o2)NC1 [Example 54, 2-(4-chloro-3-fluorophenoxy)-N-[(3S,6R)-6-[5-(4-chloro-3-fluorophenyl)-1,3,4-oxadiazol-2-yl]piperidin-3-yl]acetamide]
ATF4
  IC50: 0.001 to 0.5 µM
[1]
  IC50: 0.001 to 1 µM

## O=C(COc1ccc(Cl)c(F)c1)N[C@H]1CC[C@H](c2nnc(CCCOC(F)(F)F)o2)NC1 [Example 55, 2-(4-chloro-3-fluorophenoxy)-N-[(3S,6R)-6-{5-[3-(trifluoromethoxy)propyl]-1,3,4-oxadiazol-2-yl}piperidin-3-yl]acetamide]
ATF4
  IC50: 0.001 to 0.5 µM
[1]
  IC50: > 5 µM

## O=C(COc1ccc(Cl)c(F)c1)N[C@H]1CC[C@H](c2nnc(C3CC(OC4CC4)C3)o2)NC1 (stereo partly drawn) [Example 59, 2-(4-chloro-3-fluorophenoxy)-N-[(3S,6R)-6-[5-(3-cyclopropoxycyclobutyl)-1,3,4-oxadiazol-2-yl]piperidin-3-yl]acetamide]
ATF4
  IC50: 0.5 to 2 µM
[1]
  IC50: > 5 µM

## CC(CC(F)(F)F)Oc1nnc([C@H]2CC[C@H](NC(=O)COc3ccc(Cl)c(F)c3)CN2)o1 (stereo partly drawn) [Example 64, 2-(4-chloro-3-fluorophenoxy)-N-[(3S,6R)-6-{5-[(4,4,4-trifluorobutan-2-yl)oxy]-1,3,4-oxadiazol-2-yl}piperidin-3-yl]acetamide]
ATF4
  IC50: 2 to 15 µM
[1]
  IC50: > 5 µM

## CC(F)(F)CCOc1nnc([C@H]2CC[C@H](NC(=O)COc3ccc(Cl)c(F)c3)CN2)o1 [Example 65, 2-(4-chloro-3-fluorophenoxy)-N-[(3S,6R)-6-[5-(3,3-difluorobutoxy)-1,3,4-oxadiazol-2-yl]piperidin-3-yl]acetamide]
ATF4
  IC50: 0.5 to 2 µM
[1]
  IC50: 1 to 5 µM

## O=C(COc1ccc(Cl)c(F)c1)N[C@H]1CC[C@H](c2nnc(OCC3CC3(F)F)o2)NC1 (stereo partly drawn) [Example 66, 2-(4-chloro-3-fluorophenoxy)-N-[(3S,6R)-6-{5-[(2,2-difluorocyclopropyl)methoxy]-1,3,4-oxadiazol-2-yl}piperidin-3-yl]acetamide]
ATF4
  IC50: 0.5 to 2 µM
[1]
  IC50: 1 to 5 µM

## CCCCOc1nnc([C@H]2CC[C@H](NC(=O)COc3ccc(Cl)c(F)c3)CN2)o1 [Example 67, N-[(3S,6R)-6-(5-butoxy-1,3,4-oxadiazol-2-yl)piperidin-3-yl]-2-(4-chloro-3-fluorophenoxy)acetamide]
ATF4
  IC50: 0.001 to 0.5 µM
[1]
  IC50: 1 to 5 µM

## O=C(COc1ccc(Cl)c(F)c1)N[C@H]1CC[C@H](c2nnc(OCCC3CC3)o2)NC1 [Example 69, 2-(4-chloro-3-fluorophenoxy)-N-[(3S,6R)-6-[5-(2-cyclopropylethoxy)-1,3,4-oxadiazol-2-yl]piperidin-3-yl]acetamide]
ATF4
  IC50: 0.001 to 0.5 µM
[1]
  IC50: 0.001 to 1 µM

## CC(C)CCOc1nnc([C@H]2CC[C@H](NC(=O)COc3ccc(Cl)c(F)c3)CN2)o1 [Example 70, 2-(4-chloro-3-fluorophenoxy)-N-[(3S,6R)-6-[5-(3-methylbutoxy)-1,3,4-oxadiazol-2-yl]piperidin-3-yl]acetamide]
ATF4
  IC50: 0.001 to 0.5 µM
[1]
  IC50: 1 to 5 µM

## O=C(COc1ccc(Cl)c(F)c1)N[C@H]1CC[C@H](c2nnc(OCC3CCC3(F)F)o2)NC1 (stereo partly drawn) [Example 71, 2-(4-chloro-3-fluorophenoxy)-N-[(3S,6R)-6-{5-[(2,2-difluorocyclobutyl)methoxy]-1,3,4-oxadiazol-2-yl}piperidin-3-yl]acetamide]
ATF4
  IC50: 0.5 to 2 µM
[1]
  IC50: 1 to 5 µM

## O=C(COc1ccc(Cl)c(F)c1)N[C@H]1CC[C@H](c2nnc(OC3CC(F)(F)C3)o2)NC1 [Example 72, 2-(4-chloro-3-fluorophenoxy)-N-[(3S,6R)-6-[5-(3,3-difluorocyclobutoxy)-1,3,4-oxadiazol-2-yl]piperidin-3-yl]acetamide]
ATF4
  IC50: 2 to 15 µM
[1]
  IC50: 1 to 5 µM

## CC(C)(C)OC(=O)N1C[C@@H](NC(=O)COc2ccc(Cl)c(F)c2)CC[C@@H]1c1nnc(OCCOC(F)(F)F)o1 [Example 76, tert-butyl (2R,5S)-5-[2-(4-chloro-3-fluorophenoxy)acetamido]-2-{5-[2-(trifluoromethoxy)ethoxy]-1,3,4-oxadiazol-2-yl}piperidine-1-carboxylate]
ATF4
  IC50: 0.5 to 2 µM
[1]
  IC50: > 5 µM
